# In US8008329B2 (Dong Wha Pharmaceutical Co., Ltd., priority 2008, dated 2011):
# Marks after values point to notes of the source that are not given here.
# Tested on: osteoclast differentiation
# Experiment: Osteoclast differentiation in co-culture of mouse bone marrow cells and ST2 cells, TRAP staining (Examples 8-9)
# Type: cell-based
# Conditions: for % number of osteoclast (vs. solvent control group): 0.1 μM each, day 7; for activity at 0.1 µM: Mus musculus, Osteoclast, 168 h, Individual treatment (compounds), day 7, read-out: % number of osteoclast (vs. solvent control group)
# In short: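 Readout was TRAP-positive multinucleated (≥6 nuclei) cells on day 7, reported as % of 0.1% DMSO control, mean±SD of 4 wells. Cells were mouse (male ddY) bone marrow plus ST2 co-cultures driven by 10^−8 M vitamin D3/dexamethasone. Benzamidines, alendronic acid or risedronic acid were added at 0.1 μM alone or combined, with media renewed days 3 and 5.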
# [1] = Combination treatment (alendronic acid + compounds)
# [2] = Combination treatment (risedronic acid + compounds)
SMILES,% number of osteoclast (vs. solvent control group) [1],% number of osteoclast (vs. solvent control group) [2],activity at 0.1 µM [%]
"Cc1nc(-c2ccc(OCCCCCOc3ccc(C(=N)NO)cc3)cc2)c(CCNCCCn2ccnc2)s1 [Compound 218, N-hydroxy-4-[5-(4-{5-[2-(3-imidazol-1-yl-propylamino)-ethyl]-2-methyl-thiazol-4-yl}-phenoxy)-pentyloxy]-benzamidine]",39 ± 10.4^b %,25 ± 7.5^ac %,56 ± 1.9
"Cc1nc(-c2ccc(OCCCCCOc3ccc(C(=N)NO)cc3)cc2)c(CCNC(C)C)s1 [Compound 219, N-hydroxy-4-(5-{4-[5-(2-isopropylamino-ethyl)-2-methyl-thiazol-4-yl]-phenoxy}-pentyloxy)-benzamidine]",51 ± 5.4^b %,40 ± 3.8^c %,61 ± 10.5
"Cc1nc(-c2ccc(OCCCCCOc3ccc(C(=N)NO)cc3)cc2)c(CCNCCCOC(C)C)s1 [Compound 220, N-hydroxy-4-[5-(4-{5-[2-(3-isopropoxy-propylamino)-ethyl]-2-methyl-thiazol-4-yl}-phenoxy)-pentyloxy]-benzamidine]",53 ± 4.7^ab %,40 ± 5.1^ac %,69 ± 3.2
"Cc1nc(-c2ccc(OCCCCCOc3ccc(C(=N)NO)cc3)cc2)c(CCn2ccnc2)s1 [Compound 222, N-hydroxy-4-(5-{4-[5-(2-imidazol-1-yl-ethyl)-2-methyl-thiazol-4-yl]-phenoxy}-pentyloxy)-benzamidine]",49 ± 6.8^ab %,36 ± 6.6^ac %,74 ± 7.1
"Cc1nc(-c2ccc(OCCCCCOc3ccc(C(=N)NO)cc3)cc2)c(CCNC2CCCCC2)s1 [Compound 223, N-hydroxy-4-(5-{4-[5-(2-cyclohexylamino-ethyl)-2-methyl-thiazol-4-yl]-phenoxy}-pentyloxy)-benzamidine]",73 ± 8.2%,60 ± 12.6%,81 ± 3.8
"CCN(CC)CCc1sc(C)nc1-c1ccc(OCCCCCOc2ccc(C(=N)NO)cc2)cc1 [Compound 224, N-hydroxy-4-(5-{4-[5-(2-diethylamino-ethyl)-2-methyl-thiazol-4-yl]-phenoxy}-pentyloxy)-benzamidine]",53 ± 2.9^ab %,58 ± 10.8%,77 ± 8.4
"Cc1nc(-c2ccc(OCCCCCOc3ccc(C(=N)NO)cc3)cc2)c(CCN(CCO)CCO)s1 [Compound 225, N-hydroxy-4-{5-[4-(5-{2-[bis-(2-hydroxy-ethyl)-amino]-ethyl}-2-methyl-thiazol-4-yl)-phenoxy]-pentyloxy}-benzamidine]",50 ± 4.8^ab %,48 ± 4.9^ac %,70 ± 7.1
"Cc1nc(-c2ccc(OCCCCCOc3ccc(C(=N)NO)cc3)cc2)c(CCN2CC(C)OC(C)C2)s1 (stereo not drawn) [Compound 227, N-hydroxy-4-[5-(4-{5-[2-(2,6-dimethyl-morpholin-4-yl)-ethyl]-2-methyl-thiazol-4-yl}-phenoxy)-pentyloxy]-benzamidine]",24 ± 5.0^ab %,17 ± 4.4^ac %,42 ± 4.6
"Cc1nc(-c2ccc(OCCCCCOc3ccc(C(=N)NO)cc3)cc2)c(CCN2CCSCC2)s1 [Compound 228, N-hydroxy-4-(5-{4-[2-methyl-5-(2-thiomorpholin-4-yl-ethyl)-thiazol-4-yl]-phenoxy}-pentyloxy)-benzamidine]",31 ± 4.8^ab %,20 ± 5.8^ac %,49 ± 3.5
"Cc1nc(-c2ccc(OCCCCCOc3ccc(C(=N)NO)cc3)cc2)c(CCN2CCOCC2)s1 [Compound 231, N-hydroxy-4-(5-{4-[2-methyl-5-(2-morpholin-4-yl-ethyl)-thiazol-4-yl]-phenoxy}-pentyloxy)-benzamidine]",50 ± 9.8^b %,40 ± 3.1^ac %,82 ± 14.6
"Cc1nc(-c2ccc(OCCCCCOc3ccc(C(=N)NO)cc3)cc2)c(CCN2CCN(C)CC2)s1 [Compound 232, N-hydroxy-4-[5-(4-{2-methyl-5-[2-(4-methyl-piperazin-1-yl)-ethyl]-thiazol-4-yl}-phenoxy)-pentyloxy]-benzamidine]",39 ± 5.2^b %,37 ± 4.9^c %,47 ± 9.4
"Cc1nc(-c2ccc(OCCCCCOc3ccc(C(=N)NO)cc3)cc2)c(CCNC(C)(C)C)s1 [Compound 234, N-hydroxy-4-(5-{4-[5-(2-tert-butylamino-ethyl)-2-methyl-thiazol-4-yl]-phenoxy}-pentyloxy)-benzamidine]",30 ± 6.1^b %,22 ± 4.0^ac %,44 ± 7.5
"Cc1nc(-c2ccc(OCCCCCOc3ccc(C(=N)NO)cc3)cc2)c(CCNCC(C)C)s1 [Compound 235, N-hydroxy-4-(5-{4-[5-(2-isobutylamino-ethyl)-2-methyl-thiazol-4-yl]-phenoxy}-pentyloxy)-benzamidine]",33 ± 1.8%,25 ± 4.4^c %,38 ± 7.6
"CC(C)c1nc(-c2ccc(OCCCCCOc3ccc(C(=N)NO)cc3)cc2)c(CCN2CCN(C)CC2)s1 [Compound 241, N-hydroxy-4-[5-(4-{2-isopropyl-5-[2-(4-methyl-piperazin-1-yl)-ethyl]-thiazol-4-yl}-phenoxy)-pentyloxy]-benzamidine]",24 ± 4.6^ab %,12 ± 1.4^ac %,61 ± 6.8
"CC(C)c1nc(-c2ccc(OCCCCCOc3ccc(C(=N)NO)cc3)cc2)c(CCn2ccnc2)s1 [Compound 242, N-hydroxy-4-(5-{4-[5-(2-imidazol-1-yl-ethyl)-2-isopropyl-thiazol-4-yl]-phenoxy}-pentyloxy)-benzamidine]",18 ± 3.5^ab %,13 ± 2.8^ac %,58 ± 3.4
"CC(C)c1nc(-c2ccc(OCCCCCOc3ccc(C(=N)NO)cc3)cc2)c(CCNCCN2CCOCC2)s1 [Compound 243, N-hydroxy-4-[5-(4-{2-isopropyl-5-[2-(2-morpholin-4-yl-ethylamino)-ethyl]-thiazol-4-yl}-phenoxy)-pentyloxy]-benzamidine]",24 ± 7.7^b %,12 ± 2.3^ac %,36 ± 4.9
"CC(C)c1nc(-c2ccc(OCCCCCOc3ccc(C(=N)NO)cc3)cc2)c(CCNCCCn2ccnc2)s1 [Compound 244, N-hydroxy-4-[5-(4-{5-[2-(3-imidazol-1-yl-propylamino)-ethyl]-2-isopropyl-thiazol-4-yl}-phenoxy)-pentyloxy]-benzamidine]",19 ± 3.3^ab %,11 ± 1.7^ac %,46 ± 2.9
"CC(C)c1nc(-c2ccc(OCCCCCOc3ccc(C(=N)NO)cc3)cc2)c(CCN2CCSCC2)s1 [Compound 245, N-hydroxy-4-(5-{4-[2-isopropyl-5-(2-thiomorpholin-4-yl-ethyl)-thiazol-4-yl]-phenoxy}-pentyloxy)-benzamidine]",23 ± 4.9^b %,16 ± 4.1^ac %,35 ± 5.7
"CN1CCN(CCc2sc(C3CCCCC3)nc2-c2ccc(OCCCCCOc3ccc(C(=N)NO)cc3)cc2)CC1 [Compound 247, N-hydroxy-4-[5-(4-{2-cyclohexyl-5-[2-(4-methyl-piperazin-1-yl)-ethyl]-thiazol-4-yl}-phenoxy)-pentyloxy]-benzamidine]",39 ± 3.7^ab %,17 ± 4.5^ac %,63 ± 4.2
"N=C(NO)c1ccc(OCCCCCOc2ccc(-c3nc(C4CCCCC4)sc3CCNCCN3CCOCC3)cc2)cc1 [Compound 248, N-hydroxy-4-[5-(4-{2-cyclohexyl-5-[2-(2-morpholin-4-yl-ethylamino)-ethyl]-thiazol-4-yl}-phenoxy)-pentyloxy]-benzamidine]",33 ± 5.6^b %,27 ± 4.9^ac %,49 ± 8.7
"N=C(NO)c1ccc(OCCCCCOc2ccc(-c3nc(C4CCCCC4)sc3CCN3CCSCC3)cc2)cc1 [Compound 249, N-hydroxy-4-(5-{4-[2-cyclohexyl-5-(2-thiomorpholin-4-yl-ethyl)-thiazol-4-yl]-phenoxy}-pentyloxy)-benzamidine]",24 ± 4.0^ab %,13 ± 4.8^ac %,36 ± 4
"CN(C)CCc1sc(C2CCCCC2)nc1-c1ccc(OCCCCCOc2ccc(C(=N)NO)cc2)cc1 [Compound 250, N-hydroxy-4-(5-{4-[2-cyclohexyl-5-(2-dimethylamino-ethyl)-thiazol-4-yl]-phenoxy}-pentyloxy)-benzamidine]",45 ± 5.2^b %,12 ± 1.4^ac %,52 ± 7.2
"CCCN(CCC)CCc1sc(C2CCCCC2)nc1-c1ccc(OCCCCCOc2ccc(C(=N)NO)cc2)cc1 [Compound 251, N-hydroxy-4-(5-{4-[2-cyclohexyl-5-(2-dipropylamino-ethyl)-thiazol-4-yl]-phenoxy}-pentyloxy)-benzamidine]",20 ± 6.4^ab %,18 ± 4.4^ac %,45 ± 9.6
